Reference: ChEMBL document CHEMBL1136927, “Nonsteroidal selective androgen receptor modulators (SARMs): dissociating the anabolic and androgenic activities of the androgen receptor for therapeutic benefit” (J Med Chem, 2009)

Legend:
[1] = organism: Rattus norvegicus; assay: Myotropic activity in rat assessed as ventral prostate weight by Hershberger assay relative to intact tissue; assay type: functional, Prostate gland
[2] = organism: Rattus norvegicus; assay: Myotropic activity in rat assessed as seminal vesicle weight by Hershberger assay relative to intact tissue; assay type: functional; details: for Emax: Rattus norvegicus, Seminal vesicle
[3] = Clearance in iv dosed rat; assay type: ADME, organism-based; details: in vivo
[4] = Volume of distribution at steady state in iv dosed rat; assay type: ADME, organism-based; details: in vivo, read-out: Vdss
[5] = Terminal half life in iv dosed rat; assay type: ADME, organism-based; details: in vivo, read-out: beta t1/2 (converted)
[6] = Oral bioavailability in rat at 10 mg/kg; assay type: ADME, organism-based; details: in vivo
[7] = organism: Rattus norvegicus; assay: Myotropic activity in rat assessed as levator ani muscle weight by Hershberger assay relative to intact tissue; assay type: functional
[8] = Oral bioavailability in dog; assay type: ADME, organism-based, Canis lupus familiaris; details: in vivo
[9] = system: Rattus norvegicus; assay: Myoanabolic activity in castrated rat assessed as restored soleus muscle strength at 10 mg/kg; assay type: functional
[10] = organism: Rattus norvegicus; assay: Osteoanabolic effect in rat assessed as reduction in osteocalcin level relative to basal level; assay type: functional; parameters: scale not given: the % may be the effect or the level left
[11] = system: Rattus norvegicus; assay: Myotropic activity in rat assessed as ventral prostate weight at 3 mg/kg administered in 12 week atrophy followed by 8 weeks treatment schedule by Hershberger assay; assay type: functional, Prostate gland
[12] = system: Rattus norvegicus; assay: Myoanabolic activity in castrated rat assessed as restored soleus muscle strength at 3 mg/kg; assay type: functional
[13] = organism: Rattus norvegicus; assay: Suppression of hyphalamic-pituitary-gonadal axis in rat; assay type: functional
[14] = organism: Rattus norvegicus; assay: Myotropic activity in rat assessed as levator ani muscle weight at 10 mg/day by Hershberger assay relative to intact tissue; assay type: functional
[15] = system: Rattus norvegicus; assay: Myotropic activity in rat assessed as ventral prostate weight at 10 mg/kg by Hershberger assay; assay type: functional; details: Prostate gland
[16] = system: Rattus norvegicus; assay: Myotropic activity in rat assessed as ventral prostate weight by modified Hershberger assay at 10 mg/kg; assay type: functional; details: Prostate gland
[17] = system: Rattus norvegicus; assay: Suppression of hyphalamic-pituitary-gonadal axis in rat assessed as reduction in follicle-stimulating hormone level at 30 mg/kg; assay type: functional
[18] = system: Rattus norvegicus; assay: Myotropic activity in rat assessed as ventral prostate weight at 100 mg/kg by Hershberger assay; assay type: functional; details: Prostate gland
[19] = organism: Rattus norvegicus; assay: Myotropic activity in rat assessed as levator ani muscle weight at 3 mg/day by modified Hershberger assay relative to intact tissue; assay type: functional
[20] = system: Rattus norvegicus; assay: Myotropic activity in rat assessed as ventral prostate weight by modified Hershberger assay at 3 mg/kg; assay type: functional; details: Prostate gland
[21] = system: Rattus norvegicus; assay: Myotropic activity in rat assessed as ventral prostate weight at 30 mg/kg by Hershberger assay; assay type: functional; details: Prostate gland
[22] = organism: Rattus norvegicus; assay: Myotropic activity in intact rat assessed as reduction in ventral prostate weight by Hershberger assay; assay type: functional, Prostate gland; parameters: scale not given: the % may be the effect or the level left
[23] = system: Rattus norvegicus; assay: Suppression of hyphalamic-pituitary-gonadal axis in rat at 3 mg/kg; assay type: functional
[24] = organism: Rattus norvegicus; assay: Restoration of lean body mass in intact rat; assay type: functional
[25] = molecular target: T1, Androgen receptor (Homo sapiens, UniProt P10275)
T1 sequence (P10275 whole entry): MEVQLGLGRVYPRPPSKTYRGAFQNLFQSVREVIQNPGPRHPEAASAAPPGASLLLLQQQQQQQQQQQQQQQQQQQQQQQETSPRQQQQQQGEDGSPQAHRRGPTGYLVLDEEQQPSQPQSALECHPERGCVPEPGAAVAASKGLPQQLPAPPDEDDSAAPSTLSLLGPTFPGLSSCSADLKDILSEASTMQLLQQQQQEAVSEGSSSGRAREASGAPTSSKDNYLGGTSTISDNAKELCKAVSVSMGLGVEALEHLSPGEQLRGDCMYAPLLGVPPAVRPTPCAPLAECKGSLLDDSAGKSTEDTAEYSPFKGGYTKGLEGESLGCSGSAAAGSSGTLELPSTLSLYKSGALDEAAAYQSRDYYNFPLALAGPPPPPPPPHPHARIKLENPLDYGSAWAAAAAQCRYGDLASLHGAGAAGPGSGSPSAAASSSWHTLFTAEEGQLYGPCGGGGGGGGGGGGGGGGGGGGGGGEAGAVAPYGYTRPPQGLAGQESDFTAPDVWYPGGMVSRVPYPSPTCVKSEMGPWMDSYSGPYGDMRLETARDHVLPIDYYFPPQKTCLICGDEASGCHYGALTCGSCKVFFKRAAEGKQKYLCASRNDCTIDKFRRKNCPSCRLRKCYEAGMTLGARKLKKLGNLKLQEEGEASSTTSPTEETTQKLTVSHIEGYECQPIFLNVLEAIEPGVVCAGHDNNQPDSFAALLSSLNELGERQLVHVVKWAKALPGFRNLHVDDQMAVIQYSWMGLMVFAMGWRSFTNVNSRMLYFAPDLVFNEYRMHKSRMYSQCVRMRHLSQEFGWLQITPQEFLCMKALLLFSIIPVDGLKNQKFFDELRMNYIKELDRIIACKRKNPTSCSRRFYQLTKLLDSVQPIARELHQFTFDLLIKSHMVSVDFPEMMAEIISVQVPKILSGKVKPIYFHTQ
Description: Agonist activity at androgen receptor

[26] = organism: Rattus norvegicus; assay: Myotropic activity in rat assessed as levator ani muscle weight at 30 mg/day by Hershberger assay relative to intact tissue; assay type: functional
[27] = organism: Rattus norvegicus; assay: Myotropic activity in rat assessed as ventral prostate weight at 0.3 mg/day by Hershberger assay; assay type: functional, Prostate gland
[28] = organism: Rattus norvegicus; assay: Reduction in testes weight in intact rat at 5 ug/day; assay type: functional, Testis; parameters: scale not given: the % may be the effect or the level left
[29] = Half life in human; assay type: ADME, organism-based; details: in vivo
[30] = Rattus norvegicus, Prostate gland
[31] = Rattus norvegicus, Levator ani muscle
[32] = Rattus norvegicus, Prostate gland, read-out: ED50
[33] = Rattus norvegicus, Levator ani muscle, read-out: ED50

## C[C@](O)(COc1ccc(F)cc1)C(=O)Nc1ccc([N+](=O)[O-])c(C(F)(F)F)c1
[1]
  ED50: 0.42 mg/day
[1]; [30]
  Emax: 14.9%
[2]
  ED50: 0.38 mg/day
  Emax: 13.4%
[3]
  clearance: 3.6 mL/min/kg
[4]
  Vd: 1.5 L/kg
[5]
  half-life: 216 min
[6]
  bioavailability: 55%
[7]
  ED50: 0.44 mg/day
[7]; [31]
  Emax: 75%

## CC(=O)Nc1ccc(OC[C@](C)(O)C(=O)Nc2ccc([N+](=O)[O-])c(C(F)(F)F)c2)cc1
[1]
  ED50: 0.43 mg/day
[1]; [30]
  Emax: 35.2%
[2]
  ED50: 0.55 mg/day
  Emax: 28.5%
[3]
  clearance: 1 mL/min/kg
[4]
  Vd: 0.42 L/kg
[5]
  half-life: 156 min
[6]
  bioavailability: 100%
[8]
  bioavailability: 91%
[7]
  ED50: 0.14 mg/day
[7]; [31]
  Emax: 101%
[9]
  Activity: 156 kN/m2
[10]
  Activity: 70%
[11]
  Activity: 20%
[12]
  Activity: 120 kN/m2

## Cc1c(N2C(=O)[C@@H]3[C@H](O)CCN3C2=O)ccc(C#N)c1Cl
[1]; [30]
  Emax: 105%
[1]; [32]
  ED50: 0.14 mg/kg
[7]; [31]
  Emax: 125%
[7]; [33]
  ED50: 0.009 mg/kg
[13]
  ED50: 0.008 mg/kg

## CC[C@H]1[C@@H]2[C@@H](O)CCN2C(=O)N1c1ccc(C#N)c(Cl)c1C
[1]; [30]
  Emax: 65%
[1]; [32]
  ED50: 4.6 mg/kg
[7]; [31]
  Emax: 120%
[7]; [33]
  ED50: 0.09 mg/kg

## Cc1c(N2C(=O)[C@@H]3[C@H](O)CCN3S2(=O)=O)ccc(C#N)c1Cl
[14]
  Emax: 68%
[15]
  Emax at 10 mg/kg: 8%

## C[C@@]1(C(=O)Nc2ccc(C#N)c(C(F)(F)F)c2)CC(C(F)(F)F)=NN1
[16]
  Emax at 10 mg/kg: 26%
[17]
  Emax at 30 mg/kg: 40%
[7]; [33]
  ED50: 3.8 mg/kg
[14]
  Emax: 100%

## CC[C@@H]1COc2c(ccc3[nH]c(=O)cc(C(F)(F)F)c23)N1CC(F)(F)F
[7]
  ED50: 70 mg/day
[14]
  Emax: 100%
[18]
  Emax at 100 mg/kg: 80%

## C[C@@]12CC(C(F)(F)F)=NN1[S+]([O-])N(c1ccc(C#N)c(C(F)(F)F)c1)C2=O (some centres not stated)
[19]
  Emax: 117%
[20]
  Emax at 3 mg/kg: 58%

## N#Cc1ccc(N2[C@@H]3CC[C@H]2C[C@@H](O)C3)c2ccccc12
[7]; [31]
  Emax: 66%
[7]; [33]
  ED50: 17.3 mg/kg
[13]
  ED50: 2.8 mg/kg
  Emax: 117%
[21]
  Emax at 30 mg/kg: 27%

## C[C@]12CC(C(F)(F)F)=NN1C(N)=N/C2=N\c1ccc(C#N)c(C(F)(F)F)c1
[1]; [30]
  Emax: 31%
[1]; [32]
  ED50: > 30 mg/kg
[7]; [31]
  Emax: 91%
[7]; [33]
  ED50: 2.8 mg/kg
[22]
  Activity: 26%

## C[C@@]12CC(C(F)(F)F)=NN1C(=O)N(c1ccc(C#N)c(C(F)(F)F)c1)C2=O
[7]
  ED50: 2.9 mg/day
[7]; [31]
  Emax: 75%
[20]
  Emax at 3 mg/kg: 11%

## O=c1cc(C(F)(F)F)c2cc(N(CC(F)(F)F)CC(F)(F)F)ccc2[nH]1
[23]
  Emax at 3 mg/kg: 100%
[7]; [31]
  Emax: 150%
[18]
  Emax at 100 mg/kg: 100%

## C=C[C@@](O)(c1nc2cc(Cl)c(Cl)cc2[nH]1)C(F)(F)F
[7]; [31]
  Emax: 101%
[7]; [33]
  ED50: 0.8 mg/kg
[22]
  Activity: 46%
[24]
  Activity: 20%
[20]
  Emax at 3 mg/kg: 21%
[25]
  Ki: 1.1 nM

## CN(C)C1CC(C(C)(C)CO)Nc2ccc([N+](=O)[O-])cc21 (configuration not stated)
[26]
  Emax: 115%
[21]
  Emax at 30 mg/kg: 80%

## C[C@](O)(COc1ccc(Cl)c(F)c1)C(=O)Nc1ccc(C#N)c(C(F)(F)F)c1
[27]
  Activity: 79.4%
[28]
  Activity: 94%
[1]
  ED50: 0.43 mg/day
[1]; [30]
  Emax: 138%
[2]
  ED50: 0.41 mg/day
  Emax: 144%
[3]
  clearance: 0.87 mL/min/kg
[4]
  Vd: 0.66 L/kg
[5]
  half-life: 714 min
[6]
  bioavailability: 96%
[7]; [31]
  Emax: 139%

## C[C@](O)(CS(=O)(=O)c1ccc(F)cc1)C(=O)Nc1ccc(C#N)c(C(F)(F)F)c1 [(R)-BICALUTAMIDE]
[29]
  half-life: 5.83 days

## CC(=O)Nc1ccc(SC[C@](C)(O)C(=O)Nc2ccc(C#N)c(C(F)(F)F)c2)cc1 [ACETOTHIOLUTAMIDE]
[1]
  Activity: 20%
[2]
  Activity: 50%

## C[C@@H]1CC[C@H]([C@@H](O)C(F)(F)F)N1c1ccc2[nH]c(=O)cc(C(F)(F)F)c2c1 [LGD-2941]
[14]
  Emax: 180%
[15]
  Emax at 10 mg/kg: 100%

## C[C@]12CCC(=O)C[C@@H]1CC[C@@H]1[C@@H]2CC[C@]2(C)[C@@H](O)CC[C@@H]12 [STANOLONE]
[10]
  Activity: 50%
[11]
  Activity: 200%
[12]
  Activity: 138 kN/m2

## CCC(=O)O[C@H]1CC[C@H]2[C@@H]3CCC4=CC(=O)CC[C@]4(C)[C@H]3CC[C@]12C [TESTOSTERONE PROPIONATE]
[1]
  ED50: 0.13 mg/day
[1]; [30]
  Emax: 120%
[2]
  ED50: 0.12 mg/day
  Emax: 70%
[7]; [31]
  Emax: 104%

## C[C@]12CC[C@H]3[C@@H](CCC4=CC(=O)CC[C@@]43C)[C@@H]1CC[C@@H]2O [TESTOSTERONE]
[1]
  ED50: 0.13 mg/day
[1]; [30]
  Emax: 120%
[7]
  ED50: 0.15 mg/day
[7]; [31]
  Emax: 104%
